ChEMBL document CHEMBL1137635, “Multiple antibiotics exert delayed effects against the Plasmodium falciparum apicoplast” (Antimicrob Agents Chemother, 2007)
The source made the active and inactive calls. The calls are words filed in the database; no cut-off is given here.

Columns and labels:
Plasmodium falciparum [1] = assay: Antimalarial activity as 3rd generation parasitaemia against chloroquine-sensitive Plasmodium falciparum 3D7 infected human erythrocytes after 96hrs at 100 nM dosed 24-48 hrs post infection; type: functional
Plasmodium falciparum [2] = assay: Antimalarial activity as 3rd generation ring-stage chloroquine-resistant Plasmodium falciparum W2 after 48 hrs dose then 48 hrs drug-free; type: functional, organism-based; settings: W2, 48 h, read-out: IC50
Plasmodium falciparum [3] = assay: Antimalarial activity as 3rd generation ring-stage chloroquine-sensitive Plasmodium falciparum 3D7 after 48 hrs dose then 48 hrs drug-free; type: functional, organism-based; settings: 3D7, 48 h
Plasmodium falciparum [4] = assay: Antimalarial activity as abnormal apicoplast morphology in chloroquine-sensitive ACP1-GFP-labeled Plasmodium falciparum 3D7 trophozoite infected human erythrocytes at 2xIC50 dosed 96 hrs post infection; type: functional
Plasmodium falciparum [5] = assay: Antimalarial activity as 3rd generation parasitaemia against chloroquine-sensitive Plasmodium falciparum 3D7 infected human erythrocytes after 96hrs at 100 nM dosed 24-36 hrs post infection; type: functional
Plasmodium falciparum [6] = assay: Antimalarial activity as 3rd generation parasitaemia against chloroquine-sensitive Plasmodium falciparum 3D7 infected human erythrocytes after 96hrs at 100 nM dosed 36-48 hrs post infection; type: functional
Plasmodium falciparum [7] = assay: Antimalarial activity as segregation of apicoplast in chloroquine-sensitive ACP1-GFP-labeled Plasmodium falciparum 3D7 schizont infected human erythrocytes at 100 nM dosed 96 hrs post infection; type: functional, organism-based
Plasmodium falciparum [8] = assay: Antimalarial activity as 3rd generation parasitaemia against chloroquine-sensitive Plasmodium falciparum 3D7 infected human erythrocytes after 96 hrs at 100 nM dosed 0-48 hrs post infection; type: functional
Plasmodium falciparum [9] = assay: Antimalarial activity as parasitaemia against chloroquine-sensitive ACP1-GFP-labeled Plasmodium falciparum 3D7 trophozoite infected human erythrocytes at 2xIC50 dosed 96 hrs post infection; type: functional
Plasmodium falciparum [10] = assay: Antimalarial activity as arrested schizont maturation in chloroquine-sensitive Plasmodium falciparum 3D7 infected human erythrocytes after 48 hrs at 100 nM dosed 96 hrs post infection; type: functional, organism-based
Plasmodium falciparum [11] = assay: Antimalarial activity as 3rd generation parasitaemia against chloroquine-sensitive Plasmodium falciparum 3D7 infected human erythrocytes after 96hrs at 100 nM dosed 12-24 hrs post infection; type: functional
Plasmodium falciparum [12] = assay: Antimalarial activity as 3rd generation parasitaemia against chloroquine-sensitive Plasmodium falciparum 3D7 infected human erythrocytes assessed after 96hrs at 100 nM dosed 12-36 hrs post infection; type: functional
Plasmodium falciparum [13] = assay: Antimalarial activity as 3rd generation parasitaemia against chloroquine-sensitive Plasmodium falciparum 3D7 infected human erythrocytes after 96hrs at 100 nM dosed 0-24 hrs post infection; type: functional
Plasmodium falciparum [14] = assay: Antimalarial activity as segregation of apicoplast in chloroquine-sensitive Plasmodium falciparum 3D7 progeny infected human erythrocytes at 100 nM dosed 96 hrs post infection; type: functional, organism-based
Plasmodium falciparum [15] = assay: Antimalarial activity as 3rd generation parasitaemia against chloroquine-sensitive Plasmodium falciparum 3D7 infected human erythrocytes after 96hrs at 100 nM dosed 12-48 hrs post infection; type: functional
Plasmodium falciparum [16] = assay: Antimalarial activity as 2nd generation ring-stage chloroquine-sensitive Plasmodium falciparum 3D7 after 48 hrs by flow cytometry; type: functional, organism-based; settings: 3D7, 48 h
[17] = Half life in human at 1000 mg, po once daily for 3 days; type: ADME, organism-based; settings: in vivo
[18] = Cmax in human at 1000 mg, po once daily for 3 days; type: ADME, organism-based; design: dose 1000 mg, route oral; settings: in vivo
[19] = Tmax in human at 1000 mg, po once daily for 3 days; type: ADME, organism-based; settings: in vivo
Plasmodium falciparum [20] = assay: Antimalarial activity as 3rd generation parasitaemia against chloroquine-sensitive Plasmodium falciparum 3D7 infected human erythrocytes after 96hrs at 100 nM dosed 0-36 hrs post infection; type: functional
Plasmodium falciparum [21] = assay: Antimalarial activity as 3rd generation parasitaemia against chloroquine-sensitive Plasmodium falciparum 3D7 infected human erythrocytes after 96 hrs at 100 nM dosed 0-12 hrs post infection; type: functional
Plasmodium falciparum [22] = assay: Antimalarial activity as 2nd generation ring-stage chloroquine-resistant Plasmodium falciparum W2 after 48 hrs by flow cytometry; type: functional, organism-based; settings: W2, 48 h
[23] = Tmax in patient with kidney disease at 300 mg, po; type: ADME, organism-based; settings: human, in vivo
Homo sapiens = assay: Half life in patient with kidney disease at 300 mg, po; type: ADME, organism-based; settings: in vivo
[24] = Cmax in patient with kidney disease at 300 mg, po; type: ADME, organism-based; design: dose 300 mg, route oral; settings: human, in vivo
Plasmodium falciparum [25] = assay: Antimalarial activity as 3rd generation parasitaemia after 96 hrs against chloroquine-sensitive Plasmodium falciparum 3D7 infected human erythrocytes at 1 uM 0-48 hrs post invasion; type: functional
Plasmodium falciparum [26] = assay: Antimalarial activity as segregation of apicoplasts against chloroquine-sensitive Plasmodium falciparum 3D7 infected human erythrocytes at 1 uM 96 hrs post infection; type: functional, organism-based
Plasmodium falciparum [27] = assay: Antimalarial activity as segregation of apicoplasts against chloroquine-sensitive ACP1-GFP-labeled Plasmodium falciparum 3D7 schizont infected human erythrocytes at 1 uM 96 hrs post infection; type: functional, organism-based
[28] = Cmax in patient with tuberculosis at 600 mg, po once daily for 15 to 18 days; type: ADME, organism-based; design: dose 600 mg, route oral; settings: human, in vivo
Plasmodium falciparum [29] = assay: Antimalarial activity as 3rd generation parasitaemia after 96 hrs against chloroquine-sensitive Plasmodium falciparum 3D7 infected human erythrocytes at 1 uM treated 12-24 hrs post invasion; type: functional
Plasmodium falciparum [30] = assay: Antimalarial activity in chloroquine-sensitive ACP1-GFP-labeled Plasmodium falciparum 3D7 after 48 hrs at 2xIC50 dosed 96 hrs post infection; type: functional, organism-based
Plasmodium falciparum [31] = assay: Antimalarial activity as 3rd generation parasitaemia after 96 hrs against chloroquine-sensitive Plasmodium falciparum 3D7 infected human erythrocytes at 1 uM 0-36 hrs post invasion; type: functional
Plasmodium falciparum [32] = assay: Antimalarial activity as 3rd generation parasitaemia after 96 hrs against chloroquine-sensitive Plasmodium falciparum 3D7 infected human erythrocytes at 1 uM 0-12 hrs post invasion; type: functional
Plasmodium falciparum [33] = assay: Antimalarial activity as abnormal apicoplast morphology in chloroquine-sensitive ACP1-GFP-labeled Plasmodium falciparum 3D7 after 48 hrs at 2xIC50 dosed 96 hrs post infection; type: functional, organism-based
[34] = Half life in patient with tuberculosis at 600 mg, po once daily for 15 to 18 days; type: ADME, organism-based; settings: human, in vivo
Plasmodium falciparum [35] = assay: Antimalarial activity as arrested schizont maturation in chloroquine-sensitive Plasmodium falciparum 3D7 infected human erythrocytes after 48 hrs at 1 uM dosed 96 hrs post infection; type: functional, organism-based
Plasmodium falciparum [36] = assay: Antimalarial activity as 3rd generation parasitaemia after 96 hrs against chloroquine-sensitive Plasmodium falciparum 3D7 infected human erythrocytes at 1 uM 12-48 hrs post invasion; type: functional
Plasmodium falciparum [37] = assay: Antimalarial activity as 3rd generation parasitaemia after 96 hrs against chloroquine-sensitive Plasmodium falciparum 3D7 infected human erythrocytes at 1 uM 24-48 hrs post invasion; type: functional
Plasmodium falciparum [38] = assay: Antimalarial activity as 3rd generation parasitaemia after 96 hrs against chloroquine-sensitive Plasmodium falciparum 3D7 infected human erythrocytes at 1 uM 36-48 hrs post invasion; type: functional
Plasmodium falciparum [39] = assay: Antimalarial activity as 3rd generation parasitaemia after 96 hrs against chloroquine-sensitive Plasmodium falciparum 3D7 infected human erythrocytes at 1 uM 24-36 hrs post invasion; type: functional
[40] = Tmax in patient with tuberculosis at 600 mg, po once daily for 15 to 18 days; type: ADME, organism-based; settings: human, in vivo
Plasmodium falciparum [41] = assay: Antimalarial activity as 3rd generation parasitaemia after 96 hrs against chloroquine-sensitive Plasmodium falciparum 3D7 infected human erythrocytes at 1 uM 0-24 hrs post invasion; type: functional
Plasmodium falciparum [42] = assay: Antimalarial activity as 3rd generation parasitaemia after 96 hrs against chloroquine-sensitive Plasmodium falciparum 3D7 infected human erythrocytes at 1 uM 12-36 hrs post invasion; type: functional

CC[C@H]1OC(=O)[C@H](C)[C@@H](O[C@H]2C[C@@](C)(OC)[C@@H](O)[C@H](C)O2)[C@H](C)[C@@H](O[C@@H]2O[C@H](C)C[C@H](N(C)C)[C@H]2O)[C@](C)(O)C[C@@H](C)CN(C)[C@H](C)[C@@H](O)[C@]1(C)O [AZITHROMYCIN]
Activity (Plasmodium falciparum [1]): 68%
IC50 (Plasmodium falciparum [2]): 31 nM
IC50 (Plasmodium falciparum [3]): 52.7 nM
Activity (Plasmodium falciparum [4]): 83.4%
Activity (Plasmodium falciparum [5]): 79%
Activity (Plasmodium falciparum [6]): 113%
Activity (Plasmodium falciparum [7]): Active
Activity (Plasmodium falciparum [8]): 17%
Activity (Plasmodium falciparum [9]): 105%
Activity (Plasmodium falciparum [10]): inactive
Activity (Plasmodium falciparum [11]): 59%
Activity (Plasmodium falciparum [12]): 28%
Activity (Plasmodium falciparum [13]): 61%
Activity (Plasmodium falciparum [14]): Active
Activity (Plasmodium falciparum [15]): 18%
IC50 (Plasmodium falciparum [16]): 8670 nM
half-life [17]: 74 h
Cmax [18]: 1100 nM
Tmax [19]: 2.4 h
Activity (Plasmodium falciparum [20]): 30%
Activity (Plasmodium falciparum [21]): 91%
IC50 (Plasmodium falciparum [22]): 1460 nM

CCN(CC)CCCC(C)Nc1ccnc2cc(Cl)ccc12 (centres undefined) [CHLOROQUINE]
Tmax [23]: 6.6 h
t1/2 (Homo sapiens): 240 h
Cmax [24]: 240 nM

C[C@H]1c2cccc(O)c2C(=O)C2=C(O)[C@]3(O)C(=O)C(C(N)=O)=C(O)[C@@H](N(C)C)[C@@H]3[C@@H](O)[C@@H]21.O [DOXYCYCLINE]
Activity (Plasmodium falciparum [25]): 9%
Activity (Plasmodium falciparum [26]): Active
Activity (Plasmodium falciparum [27]): Active
IC50 (Plasmodium falciparum [2]): 211 nM
Cmax [28]: 6900 nM
IC50 (Plasmodium falciparum [3]): 453 nM
Activity (Plasmodium falciparum [29]): 44%
Activity (Plasmodium falciparum [30]): Active
Activity (Plasmodium falciparum [4]): 83.6%
Activity (Plasmodium falciparum [31]): 24%
Activity (Plasmodium falciparum [32]): 89%
Activity (Plasmodium falciparum [33]): Active
half-life [34]: 7 h
Activity (Plasmodium falciparum [9]): 97.2%
Activity (Plasmodium falciparum [35]): inactive
Activity (Plasmodium falciparum [36]): 13%
Activity (Plasmodium falciparum [37]): 87%
Activity (Plasmodium falciparum [38]): 121%
Activity (Plasmodium falciparum [39]): 41%
IC50 (Plasmodium falciparum [16]): 5320 nM
Tmax [40]: 2 h
Activity (Plasmodium falciparum [41]): 69%
IC50 (Plasmodium falciparum [22]): 3300 nM
Activity (Plasmodium falciparum [42]): 12%
